# Columns and labels:
# [1] = @ 40° C.; cited from earlier work
# [2] = Solubility in 1-butanol; assay type: physicochemical; conditions: per 100 g 1-butanol, 50° C.
# From the text: As a result, glucose having remarkably low solubility at the corresponding temperature can be selectively crystallized, thereby easily separating the glucose by filtration.
# [3] = @ 40° C.; cited from earlier work; remark: listed apart in the source
smiles,measurement,setting,value
O=C(CO)[C@@H](O)[C@H](O)[C@H](O)CO [fructose],solubility in ethanol,[1],36.3 mg/mL
same,solubility in 1-butanol,[2],32 g
same,solubility in methanol,[3],229.7 mg/mL

# From patent US10227668B2, “Method for preparing fructose or xylulose from biomass containing glucose or xylose using butanol, and method for separating the same” (KOREA RESEARCH INSTITUTE OF CHEMICAL TECHNOLOGY, priority 2016, dated 2019)
